Assay [1] concerns the target T1, caspase-1 (Homo sapiens, UniProt P29466).
T1 sequence (P29466 120-297 limits assumed): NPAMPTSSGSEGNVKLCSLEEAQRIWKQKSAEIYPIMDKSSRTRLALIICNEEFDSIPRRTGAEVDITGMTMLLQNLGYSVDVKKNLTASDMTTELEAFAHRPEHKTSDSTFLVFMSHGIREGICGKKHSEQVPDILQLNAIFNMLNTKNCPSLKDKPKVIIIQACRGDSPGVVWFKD
T1 sequence (P29466 317-404 limits assumed): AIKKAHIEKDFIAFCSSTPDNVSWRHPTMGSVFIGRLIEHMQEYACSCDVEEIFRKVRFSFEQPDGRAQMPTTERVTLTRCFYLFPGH
Put plainly: Caspase-1 enzyme inhibition (Ki, method of Margolin et al.). The assay is classed as biochemical. Particulars: Suc-YVAD-pNA substrate 80 μM, 37° C., pH 7.5; read-out: Ki C1. The procedure: (§1) Compounds of this invention may be tested using the methods described below.
(§2) In Vitro Assays Enzyme Inhibition
(§3) Ki values for test compounds with caspase-1 and caspase-8 were obtained by the method of Margolin et al. (J. Biol. Chem., 272 pp. 7223-7228 (1997)). Other caspases may be assayed similarly (see, e.g., WO 99/47545). Assays were performed in 10 mM Tris (Sigma Corp, St Louis Mo.) pH 7.5, 1 mM Dithiothreitol (DTT, Research Organic INC, Cleveland, Ohio) and 0.1% CHAPS (Pierce, Rockford Ill.) at 37° C. For caspase-3, a solution of 8% glycerol was added to the assay buffer to improve enzyme stability. A 65 μL aliquot of the assay buffer and 5 μL aliquot of the appropriate dilutions of inhibitor in DMSO where pipetted into a 96 well plate, treated with 10 μL of caspase, then diluted in assay buffer (0.5-40 nM active protein by active site titration). A control containing DMSO but no compound was included for each determination. The plates were then incubated for 15 minutes at 37° C., before addition of the appropriate substrate (20 μL, final concentration 1-4×KM, final assay volume 100 μL) to initiate the reaction. Reaction rates were measured at 37° C. either by following the time dependant increase in absorbance at 405 nm (for the pNA substrates) or in fluorescence (Ex 390, Em 460) (for the AMC substrates). The rates obtained were plotted against inhibitor concentration and the data fit to the Morrison tight-binding equation for competitive inhibitors (Morrison, J. F., Biochem. Biophys. Acta, 185 pp. 269-286 (1969)). The substrates used for the individual assays were as follows:
Caspase-1 Suc-YVAD-pNA (Bachem, King of Prussia, Pa.) (final concentration in the assay 80 μM);

The target in assay [2] is caspase-8 (Homo sapiens, UniProt Q14790). Put plainly: Caspase-8 enzyme inhibition (Ki, method of Margolin et al.). Format: biochemical. Particulars: Ac-DEVD-pNA substrate 80 μM, 37° C., pH 7.5; read-out: Ki C8. The procedure: as §1, §2, §3
Caspase-8 Ac-DEVD-pNA (Bachem, King of Prussia, Pa.) (final concentration in assay 80 μM).

The structures appear in SMILES notation. Bounds are passed on as bounds.

As a reminder, the Ki is a measure of affinity in units of concentration, obtained from inhibition or displacement.

caspase-8, sequence (Q14790 217-374 limits assumed, species assumed): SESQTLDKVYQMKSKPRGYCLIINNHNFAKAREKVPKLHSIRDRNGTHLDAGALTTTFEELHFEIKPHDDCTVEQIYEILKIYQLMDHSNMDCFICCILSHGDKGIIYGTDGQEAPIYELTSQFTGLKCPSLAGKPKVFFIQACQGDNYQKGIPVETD
caspase-8, sequence (Q14790 385-479 limits assumed, species assumed): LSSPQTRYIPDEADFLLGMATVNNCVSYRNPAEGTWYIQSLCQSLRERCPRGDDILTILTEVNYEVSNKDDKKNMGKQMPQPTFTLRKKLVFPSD

For the compound `CC(=O)Nc1ccc(C(=O)N[C@H](C(=O)N2C3CC[C@@H](C3)[C@H]2C(=O)N[C@H](C=O)CC(=O)O)C(C)(C)C)c(Cl)c1` (stereo in doubt) [II-57, (3S)-({2-[(2S)-(4-Acetylamino-2-chloro-benzoylamino)-3,3-dimethyl-butyryl]-2-(1S,4R)-aza-bicyclo[2.2.1]heptane-(3S)-carbonyl}-amino)-4-oxo-butyric acid], the Ki in assay [1] and in assay [2] was below 10 nM throughout.

Regarding `CC(=O)Nc1ccc(C(=O)N[C@H](C(=O)N2CCC[C@H]2C(=O)N[C@H](C=O)CC(=O)O)C(C)C)c(Cl)c1` [II-40, (S,S,S)-(3S)-({1-[(2S)-(2-chloro-4-acetamido-benzoylamino)-3-methyl-butyryl]-pyrrolidine-(2S)-carbonyl}-amino)-4-oxo-butyric acid], the figures for the Ki in assay [1] and in assay [2] were below 10 nM and 10 to 20 nM, respectively.

`Cc1ccccc1C(=O)N[C@H](C(=O)N1CCC[C@H]1C(=O)N[C@H](C=O)CC(=O)O)C(C)(C)C` [II-26, (S,S,S)-(3S)-({1-[3,3-Dimethyl-(2S)-(2-methyl-benzoylamino)-butyryl]-pyrrolidine-(2S)-carbonyl}-amino)-4-oxo-butyric acid]: the Ki in assay [1] and in assay [2] was below 10 nM each time.

Regarding `COc1cccc(C(=O)N[C@H](C(=O)N2C3CC[C@@H](C3)[C@H]2C(=O)N[C@H](C=O)CC(=O)O)C(C)(C)C)c1F` (stereo in doubt) [II-60, (3S)-({2-[(2S)-(2-Fluoro-3-methoxy-benzoylamino)-3,3-dimethyl-butyryl]-2-(1S,4R)-aza-bicyclo[2.2.1]heptane-(3S)-carbonyl}-amino)-4-oxo-butyric acid], the Ki in assay [1] and in assay [2] was below 10 nM each time.

As for `CC(C)(C)[C@H](NC(=O)c1cccc(O)c1Cl)C(=O)N1CCC[C@H]1C(=O)N[C@H](C=O)CC(=O)O` [II-39, (S,S,S)-(3S)-({1-[(2S)-(2-Chloro-3-hydroxy-benzoylamino)-3,3-dimethyl-butyryl]-pyrrolidine-(2S)-carbonyl}-amino)-4-oxo-butyric acid], the Ki in assay [1] and in assay [2] was below 10 nM each time.

With `COC(=O)Nc1ccc(C(=O)N[C@H](C(=O)N2CCC[C@H]2C(=O)N[C@H](C=O)CC(=O)O)C(C)(C)C)c(Cl)c1` [II-51, (S,S,S)-(3S)-({1-[(2S)-(2-chloro-4-methoxycarbonylamino-benzoylamino)-3,3-dimethyl-butyryl]-pyrrolidine-(2S)-carbonyl}-amino)-4-oxo-butyric acid], the inhibitory constant (Ki) in assay [1] and in assay [2] was below 10 nM in each case.

In the case of `CC(C)(C)[C@H](NC(=O)c1cccc(OCC2CC2)c1Cl)C(=O)N1CCC[C@H]1C(=O)N[C@H](C=O)CC(=O)O` [II-38, (S,S,S)-(3S)-({1-[(2S)-(2-Chloro-3-cyclopropylmethoxy-benzoylamino)-3,3-dimethyl-butyryl]-pyrrolidine-(2S)-carbonyl}-amino)-4-oxo-butyric acid], the inhibition constant (Ki) in assay [1] and in assay [2] was below 10 nM each time.

As to `CCc1cccc(C(=O)N[C@H](C(=O)N2CCC[C@H]2C(=O)N[C@H](C=O)CC(=O)O)C(C)(C)C)c1Cl` [II-36, (S,S,S)-(3S)-({1-[(2S)-(2-Chloro-3-ethyl-benzoylamino)-3,3-dimethyl-butyryl]-pyrrolidine-(2S)-carbonyl}-amino)-4-oxo-butyric acid], the inhibition constant (Ki) in assay [1] and in assay [2] was below 10 nM each time.

Take `Cc1ncccc1C(=O)N[C@H](C(=O)N1CCC[C@H]1C(=O)N[C@H](C=O)CC(=O)O)C(C)C` [II-15, (S,S,S)-(3S)-[(1-{3-Methyl-(2S)-[(2-methyl-pyridine-3-carbonyl)-amino]-butyryl}-pyrrolidine-(2S)-carbonyl)-amino]-4-oxo-butyric acid]: the Ki in assay [1] was below 10 nM; in assay [2], 21 to 30 nM.

Turning to `O=C[C@H](CC(=O)O)NC(=O)[C@@H]1CCCN1C(=O)[C@H](CC(F)(F)F)NC(=O)c1ccccc1Cl` [II-24, (S,S,S)-(3S)-({1-[(2S)-(2-Chloro-benzoylamino)-4,4,4-trifluoro-butyryl]-pyrrolidine-(2S)-carbonyl}-amino)-4-oxo-butyric acid], the Ki in assay [1] was below 10 nM; in assay [2], 21 to 30 nM.

Take `CC(C)[C@H](NC(=O)c1ccc(N)c(Cl)c1)C(=O)N1[C@@H]2CC[C@@H](C2)[C@H]1C(=O)N[C@H](C=O)CC(=O)O` (stereo in doubt) [II-66, (3S)-({2-[(2S)-(4-Amino-3-chloro-benzoylamino)-3-methyl-butyryl]-2-(1S,4R)-aza-bicyclo[2.2.1]heptane-(3S)-carbonyl}-amino)-4-oxo-butyric acid]: the inhibition constant (Ki) in assay [1] was 10 to 20 nM; in assay [2], below 10 nM.

Take `CC(C)[C@H](NC(=O)c1ccccc1Cl)C(=O)N1CCC[C@H]1C(=O)N[C@H](C=O)CC(=O)O` [II-2, (S,S,S)-(3S)-({1-[(2S)-(2-Chloro-benzoylamino)-3-methyl-butyryl]-pyrrolidine-(2S)-carbonyl}-amino)-4-oxo-butyric acid]: the Ki in assay [1] and in assay [2] was below 10 nM each time.

For the compound `Cc1c(O)cccc1C(=O)N[C@H](C(=O)N1CCC[C@H]1C(=O)N[C@H](C=O)CC(=O)O)C(C)C` [II-6, (S,S,S)-(3S)-({1-[(2S)-(3-Hydroxy-2-methyl-benzoylamino)-3-methyl-butyryl]-pyrrolidine-(2S)-carbonyl}-amino)-4-oxo-butyric acid], the Ki in assay [1] and in assay [2] was below 10 nM each time.

Consider `Cc1c(Cl)cccc1C(=O)N[C@H](C(=O)N1CCC[C@H]1C(=O)N[C@H](C=O)CC(=O)O)C(C)C` [II-10, (S,S,S)-(3S)-({1-[(2S)-(3-Chloro-2-methyl-benzoylamino)-3-methyl-butyryl]-pyrrolidine-(2S)-carbonyl}-amino)-4-oxo-butyric acid], for which the values for the Ki in assay [1] and in assay [2] were below 10 nM and 10 to 20 nM, respectively.

For `CCC(=O)Nc1ccc(C(=O)N[C@H](C(=O)N2C3CC[C@@H](C3)[C@H]2C(=O)NC(C=O)CC(=O)O)C(C)(C)C)c(Cl)c1` (stereo in doubt) [II-58, (3S)-({2-[(2S)-(2-Chloro-4-propionylamino-benzoylamino)-3,3-dimethyl-butyryl]-2-(1S,4R)-aza-bicyclo[2.2.1]heptane-(3S)-carbonyl}-amino)-4-oxo-butyric acid], the inhibitory constant (Ki) in assay [1] and in assay [2] was below 10 nM throughout.

In the case of `CC(C)(C)[C@H](NC(=O)c1ccc(O)cc1Cl)C(=O)N1CCC[C@H]1C(=O)N[C@H](C=O)CC(=O)O` [II-47, (S,S,S)-(3S)-({1-[(2S)-(2-chloro-4-hydroxy-benzoylamino)-3,3-dimethyl-butyryl]-pyrrolidine-(2S)-carbonyl}-amino)-4-oxo-butyric acid], the Ki in assay [1] and in assay [2] was below 10 nM in each case.

As to `CC(C)[C@H](NC(=O)c1c(N)cccc1Cl)C(=O)N1CCC[C@H]1C(=O)N[C@H](C=O)CC(=O)O` [II-53, (S,S,S)-(3S)-({1-[(2S)-(2-chloro-6-amino-benzoylamino)-3-methyl-butyryl]-pyrrolidine-(2S)-carbonyl}-amino)-4-oxo-butyric acid], the Ki was below 10 nM in assay [1] and 21 to 30 nM in assay [2].

Regarding `CC(C)(C)[C@H](NC(=O)c1cccc(Oc2ccccc2)c1Cl)C(=O)N1CCC[C@H]1C(=O)N[C@H](C=O)CC(=O)O` [II-52, (S,S,S)-(3S)-({1-[(2S)-(2-chloro-3-phenoxy-benzoylamino)-3,3-dimethyl-butyryl]-pyrrolidine-(2S)-carbonyl}-amino)-4-oxo-butyric acid], the Ki in assay [1] and in assay [2] was below 10 nM each time.

Regarding `CCC(=O)Nc1ccc(C(=O)N[C@H](C(=O)N2[C@@H]3CC[C@@H](C3)[C@H]2C(=O)N[C@H](C=O)CC(=O)O)C(C)(C)C)cc1Cl` (stereo in doubt) [II-63, (3S)-({2-[(2S)-(3-Chloro-4-propionylamino-benzoylamino)-3,3-dimethyl-butyryl]-2-(1S,4R)-aza-bicyclo[2.2.1]heptane-(3S)-carbonyl}-amino)-4-oxo-butyric acid], the Ki in assay [1] is below 10 nM; in assay [2], 10 to 20 nM.

`COc1cccc(C(=O)N[C@H](C(=O)N2C3CC[C@@H](C3)[C@H]2C(=O)N[C@H](C=O)CC(=O)O)C(C)C)c1F` (stereo in doubt) [II-61, (3S)-({2-[(2S)-(2-Fluoro-3-methoxy-benzoylamino)-3-methyl-butyryl]-2-(1S,4R)-aza-bicyclo[2.2.1]heptane-(3S)-carbonyl}-amino)-4-oxo-butyric acid]: the Ki in assay [1] and in assay [2] was below 10 nM each time.
